The supplement of paper PMC11208160

Test: recombinant barcode read abundance after kanamycin selection (control-corrected) (log10(CPM+1)); higher = more efficient recombination; sequences stand for … in AGTGCAGAGAAAATCGGCCAGTTTTCTCTGCCTGCAGTCCGCATGCCGT…AGATTTATGCAGCGGACTGCCTTTCTCCCAAAGTGATAAACCGGACAGTATCATGGACCGGTTTTCCCGGTAATCCGTATTTGCAAGGTTGGTTTCACT; site = the 11-nt target
Outline: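 Two replicates per condition were plated: chloramphenicol/ampicillin LB agar for the control, and chloramphenicol/ampicillin/kanamycin with 0.1 mM IPTG for selection. The pooled E. coli screen behind them paired targets with IS621 bridge RNA target-binding loops. Recombination efficiency is expressed from averaged, control-corrected barcode counts per million at recombinant junctions, as log10(CPM+1).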
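Further: IS621 recombinase and bridge RNA in Escherichia coli cells.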

| Sequence | recombinant barcode read abundance (log10) |
| --- | --- |
| TGTCTGGCTTGGGTTCTAACCTGTTGCCT (site AGTCTGGCTAG) | 0.215 |
| AAGGTCCCTTGGGTTCTAACCTGTTGCGG (site TAGGTCCCTTC) | 0.0703 |
| CATCGGGCTTGGGTTCTAACCTGTTGCAG (site CTTCGGGCTCT) | 0.292 |
| GGCGCGTCTTGGGTTCTAACCTGTTGCCT (site GGCGCGTCTAG) | 0.557 |
| GACCGTCCTTGGGTTCTAACCTGTTGCTT (site GACCGTCCTAG) | 0.252 |
| GTAAGTGCTTGGGTTCTAACCTGTTGCAT (site ACCCAGTCTCC) | 0.174 |
| CGTTCCTCTTGGGTTCTAACCTGTTGCCT (site CCTTCCTCTAG) | 0.016 |
| CGTATGACTTGGGTTCTAACCTGTTGCCT (site AGTATGACTAG) | 0.28 |
| CGGAATCCTTGGGTTCTAACCTGTTGCTT (site CGGAATCCTAG) | 0.316 |
| ACCGAGGCTTGGGTTCTAACCTGTTGCCT (site ACCGAGGCTAG) | 0.824 |
| GTCGGCGCTTGGGTTCTAACCTGTTGCCT (site GTAGGCGCTAG) | 0.107 |
| TGGGGTACTTGGGTTCTAACCTGTTGCCT (site TGGAGTACTAG) | 0.141 |
| ATCGTATCTTGGGTTCTAACCTGTTGCGC (site ATCGTATCTGC) | 0.068 |
| GTCCTACCTTGGGTTCTAACCTGTTGCCT (site GTCGTACCTAG) | 0.503 |
| CGGAATCCTTGGGTTCTAACCTGTTGCTT (site CGGAATCCTAC) | 0.0576 |
| TCGTTCCCTTGGGTTCTAACCTGTTGCTT (site TCGTTGCCTAG) | 0.0502 |
| AGAGAATCTTGGGTTCTAACCTGTTGCCT (site AGCGAATCTAG) | 0.165 |
| CGCTCCTCTTGGGTTCTAACCTGTTGCAT (site CGCTCCTCTAT) | 0 |
| CGAATCCCTTGGGTTCTAACCTGTTGCCG (site CGAATCCCTCG) | 0.906 |
| TAACCCACTTGGGTTCTAACCTGTTGCCT (site TTACGCACTAG) | 0.334 |
| CTTCATCCTTGGGTTCTAACCTGTTGCCT (site CTTCATCCTAG) | 0.466 |
| GACCAGTCTTGGGTTCTAACCTGTTGCGG (site GTCCAGGCTCC) | 0.128 |

| Sequence | recombinant barcode read abundance (log10) |
| --- | --- |
| TAGACGGCTTGGGTTCTAACCTGTTGCAT (site TAGACGGCTAT) | 0.463 |
| AGAGAATCTTGGGTTCTAACCTGTTGCCT (site AGGGAATCTAG) | 0.13 |
| TATTGGACTTGGGTTCTAACCTGTTGCAC (site TATTGGACTGT) | 0.0567 |
| AGACTCCCTTGGGTTCTAACCTGTTGCCT (site AGTCTCCCTAG) | 0.213 |
| CGCTGCCCTTGGGTTCTAACCTGTTGCTT (site CGCTGACCTAA) | 0.102 |
| CACACCACTTGGGTTCTAACCTGTTGCCT (site CACAGCACTAG) | 0.211 |
| ACCTTAGCTTGGGTTCTAACCTGTTGCGG (site ACCCTAACTCC) | 0.263 |
| TAGTCAGCTTGGGTTCTAACCTGTTGCAC (site TGGTCGGCTGT) | 0.00985 |
| AACATTCCTTGGGTTCTAACCTGTTGCCT (site AACATTCCTAG) | 0.151 |
| TCGAGTCCTTGGGTTCTAACCTGTTGCCA (site TGGTGTCCTTG) | 0 |
| GACCTACCTTGGGTTCTAACCTGTTGCAG (site GACCTCCCTCA) | 0.136 |
| AAAGCTACTTGGGTTCTAACCTGTTGCCT (site AAAGCTACTAG) | 1.11 |
| GCCGGTCCTTGGGTTCTAACCTGTTGCCT (site GCCGGTCCTAG) | 0.549 |
| GGAAAGACTTGGGTTCTAACCTGTTGCCT (site GGCAAGACTAG) | 0.18 |
| GGTTGCCCTTGGGTTCTAACCTGTTGCGG (site GGTTGTCCTCC) | 0.0903 |
| GGGGCTTCTTGGGTTCTAACCTGTTGCCT (site GCGGCTTCTAG) | 0.207 |
| CTATTCACTTGGGTTCTAACCTGTTGCCT (site CTATTCTCTAG) | 0.091 |
| TATTAGACTTGGGTTCTAACCTGTTGCCT (site GATTAGACTAG) | 0.209 |
| CTCGAATCTTGGGTTCTAACCTGTTGCTT (site CTCGAATCTAA) | 0.897 |
| GGACCATCTTGGGTTCTAACCTGTTGCCT (site GGACTATCTAG) | 0.276 |
| GGAATGACTTGGGTTCTAACCTGTTGCCT (site GTAATGACTAG) | 0.545 |
| AACGAGTCTTGGGTTCTAACCTGTTGCCT (site AACGAGTCTAG) | 1.03 |

| Sequence | recombinant barcode read abundance (log10) |
| --- | --- |
| ATCTCAACTTGGGTTCTAACCTGTTGCCT (site ATCTCAACTAG) | 0.118 |
| GGGGCGTCTTGGGTTCTAACCTGTTGCCT (site GGGGCGACTAG) | 0.167 |
| AGACATCCTTGGGTTCTAACCTGTTGCTT (site AGACTTCCTAA) | 0.195 |
| TTGGGAGCTTGGGTTCTAACCTGTTGCTG (site TTCGGAGCTCA) | 0.426 |
| GGCAAACCTTGGGTTCTAACCTGTTGCGG (site GGCAAACCTCC) | 2.09 |
| ATAGCCACTTGGGTTCTAACCTGTTGCCT (site ATAGCTACTAG) | 0.0679 |
| CATGCCGCTTGGGTTCTAACCTGTTGCCT (site CATGCCGCTAG) | 1.73 |
| GTGTATCCTTGGGTTCTAACCTGTTGCAT (site GTGTATCCTAT) | 1.7 |
| CAGGGTCCTTGGGTTCTAACCTGTTGCGG (site CAGGGTCCTCC) | 3.55 |
| CTATTCACTTGGGTTCTAACCTGTTGCCT (site CTATTCGCTAG) | 0.0529 |
| CTCATTCCTTGGGTTCTAACCTGTTGCAT (site CTCATTCCTAC) | 0.0351 |
| TAACTCTCTTGGGTTCTAACCTGTTGCCT (site TGACTCTCTAG) | 0.0157 |
| CGGCACACTTGGGTTCTAACCTGTTGCGG (site CGGGACACTCC) | 0.143 |
| ATTACTACTTGGGTTCTAACCTGTTGCCT (site AATACTACTAG) | 0.124 |
| TAGTTGACTTGGGTTCTAACCTGTTGCCA (site TAGTTTACTTG) | 0.0255 |
| ACAAGTCCTTGGGTTCTAACCTGTTGCGG (site ACAAGTCCTCC) | 1.74 |
| ATACGTCCTTGGGTTCTAACCTGTTGCAT (site ATACGTCCTAT) | 1.12 |
| AGGTTCCCTTGGGTTCTAACCTGTTGCTG (site AGGTTCCCTTA) | 0.358 |
| ACACTGGCTTGGGTTCTAACCTGTTGCCT (site ACGCTGGCTAG) | 0.025 |
| AGTCTAGCTTGGGTTCTAACCTGTTGCGG (site AGTCTAGCTCC) | 1.33 |
| ACCTTGCCTTGGGTTCTAACCTGTTGCCT (site ACTTTGCCTAG) | 0.0414 |
| GAGTAGCCTTGGGTTCTAACCTGTTGCGG (site GAGTAGCCTCC) | 2.59 |

| Sequence | recombinant barcode read abundance (log10) |
| --- | --- |
| CGTGAGACTTGGGTTCTAACCTGTTGCCT (site CGTAAGACTAG) | 0.341 |
| AGGCCGTCTTGGGTTCTAACCTGTTGCGT (site AGGCCGTCTAC) | 2.43 |
| CCAAGCACTTGGGTTCTAACCTGTTGCCT (site CCAAGCGCTAG) | 0.0822 |
| ATCGAGTCTTGGGTTCTAACCTGTTGCCT (site AACGAGTCTAG) | 0.139 |
| TAGAACACTTGGGTTCTAACCTGTTGCTC (site TAGAACACTAA) | 0.421 |
| TAACGTACTTGGGTTCTAACCTGTTGCGG (site TAACGTACTCC) | 1.41 |
| GAGTAGCCTTGGGTTCTAACCTGTTGCGG (site GAGTTGCCTCC) | 0.204 |
| GGCTAGACTTGGGTTCTAACCTGTTGCGG (site GGCTCTACTCC) | 0.0457 |
| ACAGTAGCTTGGGTTCTAACCTGTTGCCG (site ACAGTAGCTCC) | 0.189 |
| CCGCCGGCTTGGGTTCTAACCTGTTGCCT (site CCGCCAGCTAG) | 0 |
| GTTCCCTCTTGGGTTCTAACCTGTTGCTT (site GTTCCCTCTAA) | 1.9 |
| ACATCAACTTGGGTTCTAACCTGTTGCCT (site ACGTCAACTAG) | 0.0953 |
| AGGCGTCCTTGGGTTCTAACCTGTTGCCT (site AGGCGTCCTTG) | 0.374 |
| TCCTGTCCTTGGGTTCTAACCTGTTGCAT (site TCCTGTCCTAT) | 0.467 |
| TCGCACACTTGGGTTCTAACCTGTTGCTG (site TCGCACACTCA) | 0.548 |
| CTGTGAACTTGGGTTCTAACCTGTTGCCT (site CGGTGAACTAG) | 0.216 |
| TAGAATCCTTGGGTTCTAACCTGTTGCAA (site TAGAATCCTCT) | 0.123 |
| GAGAACACTTGGGTTCTAACCTGTTGCCT (site CAGAACACTAG) | 0.439 |
| ACTCGGCCTTGGGTTCTAACCTGTTGCGT (site ACTCGGCCTAC) | 2.56 |
| GTGAGGCCTTGGGTTCTAACCTGTTGCCT (site ATGAGGCCTAG) | 1.19 |
